# Data taken from PubChem BioAssay (NCI).
#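 Interpolation was linear, between the two tested concentrations surrounding the appropriate level; five concentrations were tested over 48 hours in 96-well plates. The concentration for full growth arrest is given as TGI.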
# Tests used:
# Assay in all cases: NCI-60 cell line screen, 48 h
# [1] = test system: NCI-H522 lung
# [2] = test system: MDA-N
# [3] = test system: HOP-62 NSCLC
# [4] = test system: DU-145 prostate
# [5] = test system: SF-268 CNS
# [6] = test system: OVCAR-8 ovarian
# [7] = test system: EKVX NSCLC
# [8] = test system: UO-31 renal
# [9] = test system: SN12C renal
# [10] = test system: SR leukemia
# [11] = test system: HS 578T breast
# [12] = test system: CCRF-CEM leukemia
# [13] = test system: OVCAR-4 ovarian
# [14] = test system: MOLT-4 leukemia
# [15] = test system: MDA-MB-435
# [16] = test system: SF-539 CNS
# [17] = test system: NCI-H460 lung
# [18] = test system: NCI-H226 lung
# [19] = test system: OVCAR-5 ovarian
# [20] = test system: T-47D breast
Compound,TGI [1] [µM],TGI [2] [µM],TGI [3] [µM],TGI [4] [µM],TGI [5] [µM],TGI [6] [µM],TGI [7] [µM],TGI [8] [µM],TGI [9] [µM],TGI [10] [µM],TGI [11] [µM],TGI [12] [µM],TGI [13] [µM],TGI [14] [µM],TGI [15] [µM],TGI [16] [µM],TGI [17] [µM],TGI [18] [µM],TGI [19] [µM],TGI [20] [µM]
Nc1ccc(-c2nc3ccccc3s2)cc1F,> 100,> 100,> 100,> 100,> 100,> 100,11.8,> 100,> 100,53.9,> 100,> 100,> 100,31.9,> 100,–,–,–,–,–
CCN1C(=O)C(N=[N+]=[N-])(c2ccccc2)C(=O)c2ccccc21 (stereo not drawn),> 100,–,> 100,–,> 100,–,> 100,> 100,> 100,> 100,–,> 100,> 100,> 100,–,> 100,> 100,> 100,> 100,–
COC(=O)C1CCC[C@H]2C(CO)=C(C)C(=O)[C@@H]12 (stereo partly drawn),> 100,–,> 100,–,> 100,> 100,> 100,> 100,> 100,> 100,–,> 100,> 100,> 100,–,> 100,> 100,> 100,> 100,–
O=C1NCC2(CCNCC2)N1,–,–,> 100,> 100,> 100,> 100,> 100,> 100,> 100,> 100,> 100,> 100,> 100,> 100,> 100,> 100,> 100,> 100,> 100,> 100
ClCCCC1COc2ccccc2O1 (stereo not drawn),> 100,> 100,> 100,> 100,> 100,> 100,> 100,> 100,> 100,> 100,–,> 100,> 100,> 100,–,> 100,> 100,> 100,> 100,–
CCOC(=O)/C(=C/c1ccc(Cl)cc1)N(CC)CC,> 100,–,> 100,–,> 100,> 100,> 100,> 100,> 100,> 100,–,> 100,> 100,> 100,–,> 100,> 100,> 100,> 100,–
CC1=C(c2ccc(C)cc2)NC(=S)C(C)C(c2ccc(C)cc2)=N1 (stereo not drawn),–,> 100,> 100,> 100,> 100,> 100,> 100,> 100,> 100,–,–,> 100,> 100,> 100,> 100,> 100,> 100,> 100,> 100,> 100
Nc1ccc(-c2nc3ccc(Cc4ccc5nc(-c6ccc(N)cc6)oc5c4)cc3o2)cc1,> 100,> 100,–,> 100,> 100,> 100,–,> 100,> 100,41.2,–,> 100,> 100,> 100,> 100,> 100,> 100,> 100,> 100,–
Nc1ccn(CC(CO)CC(c2ccccc2)P(=O)(O)O)c(=O)n1 (stereo not drawn),> 100,–,> 100,–,> 100,> 100,> 100,> 100,> 100,> 100,–,> 100,–,> 100,–,> 100,> 100,> 100,> 100,–
COc1cccc(N2C(=O)[C@H]3[C@H]4CC(C(C)(C)C)CC[C@H]4c4c([nH]c5ccccc45)[C@H]3C2=O)c1 (stereo partly drawn),45.7,–,31.7,–,54.7,29.7,40.6,35.5,26.5,–,–,29.7,–,25.1,–,42.1,–,40.3,–,–
CC1=C2c3ccccc3N(S(=O)(=O)c3ccccc3)[C@H]2[C@H](C(=O)N2C3CC4CC[C@@]3(CS2(=O)=O)C4(C)C)CC1 (stereo partly drawn),42.6,–,> 100,> 100,> 100,> 100,> 100,54,> 100,> 100,> 100,> 100,> 100,75.9,> 100,> 100,> 100,> 100,> 100,> 100
Cc1ccc(C(O)/C(=N/N)c2nc3ccc([N+](=O)[O-])cc3[nH]c2=O)cc1 (stereo not drawn),> 100,–,> 100,–,> 100,> 100,–,> 100,> 100,> 100,–,> 100,> 100,> 100,–,–,> 100,> 100,> 100,–
CCOc1ccc(N=Nc2c(-c3ccccc3)nn(C(=O)CC(=O)Nc3cccc(C)c3)c2-c2ccccc2)cc1,> 100,–,> 100,–,> 100,> 100,> 100,> 100,> 100,> 100,–,> 100,> 100,> 100,–,> 100,> 100,> 100,> 100,–
NN/C(=N\S(=O)(=O)c1cccc2nsnc12)Nc1ccc(Cl)cc1,–,> 100,> 100,> 100,> 100,> 100,> 100,> 100,> 100,> 100,–,> 100,> 100,> 100,–,> 100,> 100,> 100,> 100,> 100
N#CC1C(=O)NC2=C(CCOc3c2ccc2ccccc32)C1c1ccc(F)cc1 (stereo not drawn),> 100,–,33.6,> 100,88.8,> 100,> 100,24.7,27.3,–,43.8,> 100,> 100,> 100,> 100,> 100,> 100,–,71.9,99.5
CCC(C)C(NC(=O)c1c2ccccc2nc2ccccc12)C(=O)O (stereo not drawn),> 100,–,> 100,> 100,> 100,> 100,> 100,> 100,> 100,> 100,–,> 100,> 100,> 100,> 100,> 100,> 100,> 100,> 100,–
COc1cc(/C=C2/C(=O)N=C(NC(C)=O)N2C)ccc1OC(C)=O,–,> 100,> 100,> 100,–,> 100,> 100,> 100,> 100,–,–,–,> 100,> 100,> 100,> 100,> 100,> 100,> 100,> 100
COC(=O)C1=C(OC(=O)/C(=C/c2c(F)cccc2F)c2ccccc2)C(C(=O)OC)[C@@]2(O)[C@@H](C(=O)OC)[C@H](C)C[C@@H]1[C@@H]2C(=O)OC (stereo partly drawn),> 100,–,> 100,> 100,> 100,> 100,> 100,8.26,> 100,–,–,> 100,> 100,> 100,> 100,> 100,> 100,> 100,> 100,> 100
CSC1CC2C(CC1(C)SC)C2(C)C (stereo not drawn),> 100,–,> 100,–,> 100,> 100,> 100,> 100,–,> 100,–,84.2,> 100,> 100,–,> 100,67,73.1,> 100,–
O=c1[nH]c(=O)n(C2OC(CO)C(O)C2O)cc1OCc1ccccc1 (stereo not drawn),> 100,–,> 100,–,> 100,> 100,> 100,> 100,> 100,> 67.5,–,> 78.1,> 100,> 100,–,> 100,> 100,> 100,> 100,–
COc1ccc(C(=O)C(CC2C(=O)CC(C)(C)C(C(=O)C(=O)Nc3c(C)cccc3C)C2=O)c2ccc(OC)cc2)cc1 (stereo not drawn),> 100,> 100,> 100,> 100,> 100,> 100,> 100,> 100,> 100,91.9,> 100,> 100,> 100,> 100,> 100,> 100,> 100,> 100,> 100,–
Cc1cccc2c(N)c3cccc(C(=O)NCCN4CCOCC4)c3nc12,1.86,2.91,7.55,11.6,1.19,–,5.66,8.26,7.97,–,0.43,–,6.69,1.71,2.12,> 100,14,–,8.7,–
Cc1nc2ccc(S(=O)(=O)Nc3ccccc3Cl)cc2c(=O)n1NC(=O)CNc1ccccc1Cl,> 100,> 100,> 100,> 100,> 100,> 100,> 100,> 100,> 100,> 100,> 100,> 100,> 100,> 100,> 100,> 100,> 100,> 100,> 100,–
COc1cc2c(cc1OC)C1(c3ccccc3)ON=C(c3ccccc3)N1CS2 (stereo not drawn),> 100,–,> 100,–,> 100,–,> 100,> 100,> 100,> 100,–,> 100,> 100,> 100,–,> 100,> 100,> 100,> 100,–
Cc1cn(C2CC(N=[N+]=[N-])C(C(=O)O)O2)c(=O)[nH]c1=O (stereo not drawn),> 100,> 100,> 100,> 100,> 100,> 100,> 100,> 100,> 100,> 100,> 100,> 100,> 100,> 100,> 100,> 100,> 100,> 100,> 100,–
O=c1nc(-c2ccccc2)scc1-c1ccccc1,> 100,–,> 100,–,> 100,> 100,> 100,> 100,> 100,> 100,–,> 100,> 100,> 100,–,> 100,> 100,> 100,–,–
CC(=O)O[C@]12CCCCC1C1(O)C(O)CCCC[C@H]12 (stereo partly drawn),> 100,–,> 100,–,> 100,> 100,> 100,> 100,> 100,> 100,–,> 100,> 100,> 100,–,–,> 100,> 100,–,–
CCCCC1=CC1(C#N)[N+](=O)[O-] (stereo not drawn),> 100,–,> 100,> 100,> 100,> 100,> 100,> 100,> 100,> 100,> 100,63.6,> 100,67.5,> 100,> 100,> 100,> 100,> 100,> 100
